Assay results from US6610846B1, “Heteroaromatic glucokinase activators” (Hoffman-La Roche Inc., priority 1999, dated 2003).

Key:
[1] = test system: C57BL/6J mice; assay: Glucokinase activator in vivo screen (blood glucose after oral dosing); conditions: administered orally, 50 mg/kg, C57BL/6J mice fasted two hours; decrease in blood glucose compared to vehicle over six hours (Example B)
Protocol: Glucokinase Activator In Vivo Screen Protocol
C57BL/6J mice are orally dosed via gavage with Glucokinase (GK) activator at 50 mg/kg body weight following a two hour fasting period. Blood glucose determinations are made five times during the six hour post-dose study period. Mice (n=6) are weighed and fasted for a two hour period prior to oral treatment.

| Compound | glucokinase activator in vivo activity [1] | melting point |
| --- | --- | --- |
| CS(=O)(=O)c1ccc([C@@H](CC2CCCC2)C(=O)Nc2ncc(Cl)s2)cc1 [Example 131, N-(5-Chloro-thiazol-2-yl)-3-cyclopentyl-2(R)-(4-methanesulfonyl-phenyl)-propionamide] | excellent glucokinase activator in vivo activity | 83 to 88 °C |
| Cc1nccc(NC(=O)[C@H](CC2CCCC2)c2ccc(S(C)(=O)=O)c(Cl)c2)n1 [Example 144, 2(R)-(3-Chloro-4-methanesulfonyl-phenyl)-3-cyclopentyl-N-(2-methyl-pyrimidin-4-yl)-propionamide] | excellent glucokinase activator in vivo activity |  |
| CS(=O)(=O)c1ccc(C(CC2CCCC2)C(=O)Nc2nccs2)cc1Cl (centres unmarked) [Example 12, 2-[3-Chloro-4-methanesulfonyl-phenyl]-3-cyclopentyl-N-thiazol-2-yl-propionamide] | excellent glucokinase activator in vivo activity |  |
| CS(=O)(=O)c1ccc([C@@H](CC2CCCC2)C(=O)Nc2nccs2)cc1 [Example 13, (2R)-3-Cyclopentyl-2-(4-methanesulfonylphenyl)-N-thiazol-2-yl-propionamide] | excellent glucokinase activator in vivo activity |  |
| CS(=O)(=O)c1ccc(C(CC2CCCC2)C(=O)Nc2ccccn2)cc1Cl (centres unmarked) [Example 92, 2-(3-Chloro-4-methanesulfonyl-phenyl)-3-cyclopentyl-N-pyridin-2-yl-propionamide] | excellent glucokinase activator in vivo activity |  |
| COCS(=O)(=O)c1ccc(C(CC2CCCC2)C(=O)Nc2nccs2)cc1 (centres unmarked) [Example 125, 3-Cyclopentyl-2-(4-methoxymethanesulfonyl-phenyl)-N-thiazol-2-yl-propionamide] | excellent glucokinase activator in vivo activity | 157 to 160 °C |
| CS(=O)(=O)c1ccc(C(CC2CCCC2)C(=O)Nc2ccccn2)cc1[N+](=O)[O-] (centres unmarked) [Example 44, 3-Cyclopentyl-2-(4-methanesulfonyl-3-nitrophenyl)-N-pyridin-2-yl-propionamide] | excellent glucokinase activator in vivo activity | 92 to 95 °C |
| Cc1nccc(NC(=O)C(CC2CCCC2)c2ccc(S(C)(=O)=O)c(Br)c2)n1 (centres unmarked) [Example 148(B)(a), 2-(3-Bromo-4-methanesulfonyl-phenyl)-3-cyclopentyl-N-(2-methyl-pyrimidin-4-yl)-propionamide] | excellent glucokinase activator in vivo activity |  |
| Cc1nccc(NC(=O)C(CC2CCCC2)c2ccc(S(C)(=O)=O)c(C(F)(F)F)c2)n1 (centres unmarked) [Example 155(B)(c), 3-Cyclopentyl-2-(4-methanesulfonyl-3-trifluoromethyl-phenyl)-N-(2-methyl-pyrimidin-4-yl)-propionamide] | excellent glucokinase activator in vivo activity |  |
| CS(=O)(=O)c1ccc([C@@H](CC2CCCC2)C(=O)Nc2ccc(Br)cn2)cc1Cl [Example 99, N-(5-Bromo-pyridin-2-yl)-2(R)-(3-chloro-4-methanesulfonyl-phenyl)-3-cyclopentyl-propionamide] | excellent glucokinase activator in vivo activity |  |
| CS(=O)(=O)c1ccc(C(CC2CCCC2)C(=O)Nc2ccc(Br)cn2)cc1Cl (centres unmarked) [Example 93, N-(5-Bromo-pyridin-2-yl)-2-(3-chloro-4-methanesulfonyl-phenyl)-3-cyclopentyl-propionamide] | excellent glucokinase activator in vivo activity |  |
| O=C(Nc1ccccn1)[C@H](CC1CCCC1)c1ccc(Cl)c(Cl)c1 [Example 54(B)(a), 3-Cyclopentyl-2(R)-(3,4-dichloro-phenyl)-N-pyridin-2-yl-propionamide] | excellent glucokinase activator in vivo activity |  |
| Cc1nccc(NC(=O)[C@H](CC2CCCC2)c2ccc(S(C)(=O)=O)c(C(F)(F)F)c2)n1 [Example 157(B)(b), 3-Cyclopentyl-2(R)-(4-methanesulfonyl-3-trifluoromethyl-phenyl)-N-(2-methyl-pyrimidin-4-yl)-propionamide] | excellent glucokinase activator in vivo activity |  |
| Cc1nccc(NC(=O)C(CC2CCCC2)c2ccc(S(C)(=O)=O)c(Cl)c2)n1 (centres unmarked) [Example 143, 2-(3-Chloro-4-methanesulfonyl-phenyl)-3-cyclopentyl-N-(2-methyl-pyrimidin-4-yl)-propionamide] | excellent glucokinase activator in vivo activity |  |
| COC(=O)c1ccc(NC(=O)C(CC2CCCC2)c2ccc(S(=O)(=O)C(F)(F)F)cc2)nc1 (centres unmarked) [Example 43(B)(c), 6-[3-Cyclopentyl-2-(4-trifluoromethanesulfonyl-phenyl)-propionylamino]-nicotinic acid methyl ester] | excellent glucokinase activator in vivo activity |  |
| CS(=O)(=O)c1ccc(C(CC2CCCC2)C(=O)Nc2cnccn2)cc1C(F)(F)F (centres unmarked) [Example 155(B)(b), 3-Cyclopentyl-2-(4-methanesulfonyl-3-trifluoromethyl-phenyl)-N-pyrazin-2-yl-propionamide] | excellent glucokinase activator in vivo activity |  |
| Cc1ccc(NC(=O)C(CC2CCCC2)c2ccc(S(=O)(=O)C(F)(F)F)cc2)nc1 (centres unmarked) [Example 43(B)(b), 3-Cyclopentyl-N-(5-methyl-pyridin-2-yl)-2-(4-trifluoromethanesulfonyl-phenyl)-propionamide] | excellent glucokinase activator in vivo activity |  |
| CS(=O)(=O)c1ccc(C(CC2CCCC2)C(=O)Nc2ccncn2)cc1Cl (centres unmarked) [Example 141, 2-(3-Chloro-4-methanesulfonyl-phenyl)-3-cyclopentyl-N-pyrimidin-4-yl-propionamide] | excellent glucokinase activator in vivo activity |  |
| O=C(Nc1ccc(CO)cn1)[C@H](CC1CCCC1)c1ccc(Cl)c(Cl)c1 [Example 106, 3-Cyclopentyl-2(R)-(3,4-dichloro-phenyl)-N-(5-hydroxymethyl-pyridin-2-yl)propionamide] | excellent glucokinase activator in vivo activity |  |
| COC(=O)c1ccc(NC(=O)[C@H](CC2CCCC2)c2ccc(Cl)c(Cl)c2)nc1 [Example 45, 6-[3-Cyclopentyl-2(R)-(3,4-dichloro-phenyl)-propionylamino]-nicotinic acid methyl ester] | excellent glucokinase activator in vivo activity |  |
| CS(=O)(=O)c1ccc(C(CC2CCCC2)C(=O)Nc2nccs2)cc1 (centres unmarked) [Example 3(A), 3-Cyclopentyl-2-(4-methanesulfonyl-phenyl)-N-thiazol-2-yl-propionamide] | excellent glucokinase activator in vivo activity |  |
| O=C(Nc1ccc(Cl)cn1)[C@H](CC1CCCC1)c1ccc(Cl)c(Cl)c1 [Example 54(A), N-(5-Chloro-pyridin-2-yl)-3-cyclopentyl-2(R)-(3,4-dichloro-phenyl)-propionamide] | excellent glucokinase activator in vivo activity |  |
| CS(=O)(=O)c1ccc([C@@H](CC2CCCC2)C(=O)Nc2ncc(Br)s2)cc1 [Example 133, N-(5-Bromo-thiazol-2-yl)-3-cyclopentyl-2(R)-(4-methanesulfonyl-phenyl)-propionamide] | excellent glucokinase activator in vivo activity |  |
| Cc1csc(NC(=O)[C@H](CC2CCCC2)c2ccc(S(C)(=O)=O)c(Cl)c2)n1 [Example 139, 2(R)-(3-Chloro-4-methanesulfonyl-phenyl)-3-cyclopentyl-N-(4-methyl-thiazol-2-yl)-propionamide] | excellent glucokinase activator in vivo activity |  |
| CS(=O)(=O)c1ccc([C@@H](CC2CCCC2)C(=O)Nc2ccncn2)cc1Cl [Example 142, 2(R)-(3-Chloro-4-methanesulfonyl-phenyl)-3-cyclopentyl-N-pyrimidin-4-yl-propionamide] | excellent glucokinase activator in vivo activity |  |
| CS(=O)(=O)c1ccc(C(CC2CCCC2)C(=O)Nc2cnccn2)cc1Br (centres unmarked) [Example 149, 2-(3-Bromo-4-methanesulfonyl-phenyl)-3-cyclopentyl-N-pyrazin-2-yl-propionamide] | excellent glucokinase activator in vivo activity |  |
| Cc1ccc(NC(=O)[C@H](CC2CCCC2)c2ccc(S(C)(=O)=O)c(Cl)c2)nc1 [Example 140, 2(R)-(3-Chloro-4-methanesulfonyl-phenyl)-3-cyclopentyl-N-(5-methyl-pyridin-2-yl)-propionamide] | excellent glucokinase activator in vivo activity |  |
| CS(=O)(=O)c1ccc(C(CC2CCCC2)C(=O)Nc2ccncn2)cc1C(F)(F)F (centres unmarked) [Example 155(B)(a), 3-Cyclopentyl-2-(4-methanesulfonyl-3-trifluoromethyl-phenyl)-N-pyrimidin-4-yl-propionamide] | excellent glucokinase activator in vivo activity |  |
| CS(=O)(=O)c1ccc([C@@H](CC2CCCC2)C(=O)Nc2cnccn2)cc1C(F)(F)F [Example 157(B)(a), 3-Cyclopentyl-2(R)-(4-methanesulfonyl-3-trifluoromethyl-phenyl)-N-pyrazin-2-yl-propionamide] | excellent glucokinase activator in vivo activity |  |
